# Test results published in ChEMBL document CHEMBL1201862, “PubChem BioAssay data set” (2004).
# Active and inactive are the calls of the source. For most assays here, no stated cut-off is given here; in the data, actives have a measured EC50 and inactives only a lower limit.
# What was measured:
# [1] = target: T1, RNA-binding protein pos-1 (Caenorhabditis elegans, UniProt G5EF15); test: inhibitors of POS-1/mex-3 RNA binding, dose response, biochemical, fluorescence polarization (AID 1964);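 further: purified POS-1 fused to maltose binding protein made in E. coli; potency of compounds blocking POS-1 binding to fluorescent RNA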
# T1 sequence (G5EF15 whole entry): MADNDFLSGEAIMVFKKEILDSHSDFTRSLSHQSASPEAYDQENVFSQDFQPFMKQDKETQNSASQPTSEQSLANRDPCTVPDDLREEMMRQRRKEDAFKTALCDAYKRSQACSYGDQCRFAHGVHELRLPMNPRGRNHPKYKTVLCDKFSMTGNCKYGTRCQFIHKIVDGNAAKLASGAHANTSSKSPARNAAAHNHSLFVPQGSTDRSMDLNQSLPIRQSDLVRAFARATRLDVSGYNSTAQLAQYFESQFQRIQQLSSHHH
# [2] = target: T2, Zinc finger protein mex-5 (Caenorhabditis elegans, UniProt Q9XUB2); test: MEX-5/TCR-2 RNA interaction inhibitors, dose response, biochemical, C. elegans, fluorescence polarization (AID 1960)
# T2 sequence (Q9XUB2 whole entry): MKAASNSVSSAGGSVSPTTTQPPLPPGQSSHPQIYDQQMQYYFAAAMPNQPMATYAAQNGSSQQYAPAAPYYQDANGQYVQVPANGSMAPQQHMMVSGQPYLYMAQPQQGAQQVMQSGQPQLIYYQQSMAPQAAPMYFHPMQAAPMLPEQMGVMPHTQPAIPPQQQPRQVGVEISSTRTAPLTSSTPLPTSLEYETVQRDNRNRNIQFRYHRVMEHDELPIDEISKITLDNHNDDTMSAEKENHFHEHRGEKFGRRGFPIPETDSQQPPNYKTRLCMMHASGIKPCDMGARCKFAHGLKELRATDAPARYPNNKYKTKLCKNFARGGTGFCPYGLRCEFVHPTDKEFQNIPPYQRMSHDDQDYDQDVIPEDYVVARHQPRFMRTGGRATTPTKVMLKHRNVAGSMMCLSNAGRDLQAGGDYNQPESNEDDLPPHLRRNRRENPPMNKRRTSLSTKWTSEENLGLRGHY
# Ion channel NompC = Ion channel NompC (Danio rerio, UniProt Q7T1G6); test: Dose response cell-based high-throughput screening assay for agonists of the transient receptor potential channel N1 (TRPN1). [Related pubchem assays (depositor defined):AID1424, AID1448]; format: functional
# Sequence of Ion channel NompC (Q7T1G6 whole entry): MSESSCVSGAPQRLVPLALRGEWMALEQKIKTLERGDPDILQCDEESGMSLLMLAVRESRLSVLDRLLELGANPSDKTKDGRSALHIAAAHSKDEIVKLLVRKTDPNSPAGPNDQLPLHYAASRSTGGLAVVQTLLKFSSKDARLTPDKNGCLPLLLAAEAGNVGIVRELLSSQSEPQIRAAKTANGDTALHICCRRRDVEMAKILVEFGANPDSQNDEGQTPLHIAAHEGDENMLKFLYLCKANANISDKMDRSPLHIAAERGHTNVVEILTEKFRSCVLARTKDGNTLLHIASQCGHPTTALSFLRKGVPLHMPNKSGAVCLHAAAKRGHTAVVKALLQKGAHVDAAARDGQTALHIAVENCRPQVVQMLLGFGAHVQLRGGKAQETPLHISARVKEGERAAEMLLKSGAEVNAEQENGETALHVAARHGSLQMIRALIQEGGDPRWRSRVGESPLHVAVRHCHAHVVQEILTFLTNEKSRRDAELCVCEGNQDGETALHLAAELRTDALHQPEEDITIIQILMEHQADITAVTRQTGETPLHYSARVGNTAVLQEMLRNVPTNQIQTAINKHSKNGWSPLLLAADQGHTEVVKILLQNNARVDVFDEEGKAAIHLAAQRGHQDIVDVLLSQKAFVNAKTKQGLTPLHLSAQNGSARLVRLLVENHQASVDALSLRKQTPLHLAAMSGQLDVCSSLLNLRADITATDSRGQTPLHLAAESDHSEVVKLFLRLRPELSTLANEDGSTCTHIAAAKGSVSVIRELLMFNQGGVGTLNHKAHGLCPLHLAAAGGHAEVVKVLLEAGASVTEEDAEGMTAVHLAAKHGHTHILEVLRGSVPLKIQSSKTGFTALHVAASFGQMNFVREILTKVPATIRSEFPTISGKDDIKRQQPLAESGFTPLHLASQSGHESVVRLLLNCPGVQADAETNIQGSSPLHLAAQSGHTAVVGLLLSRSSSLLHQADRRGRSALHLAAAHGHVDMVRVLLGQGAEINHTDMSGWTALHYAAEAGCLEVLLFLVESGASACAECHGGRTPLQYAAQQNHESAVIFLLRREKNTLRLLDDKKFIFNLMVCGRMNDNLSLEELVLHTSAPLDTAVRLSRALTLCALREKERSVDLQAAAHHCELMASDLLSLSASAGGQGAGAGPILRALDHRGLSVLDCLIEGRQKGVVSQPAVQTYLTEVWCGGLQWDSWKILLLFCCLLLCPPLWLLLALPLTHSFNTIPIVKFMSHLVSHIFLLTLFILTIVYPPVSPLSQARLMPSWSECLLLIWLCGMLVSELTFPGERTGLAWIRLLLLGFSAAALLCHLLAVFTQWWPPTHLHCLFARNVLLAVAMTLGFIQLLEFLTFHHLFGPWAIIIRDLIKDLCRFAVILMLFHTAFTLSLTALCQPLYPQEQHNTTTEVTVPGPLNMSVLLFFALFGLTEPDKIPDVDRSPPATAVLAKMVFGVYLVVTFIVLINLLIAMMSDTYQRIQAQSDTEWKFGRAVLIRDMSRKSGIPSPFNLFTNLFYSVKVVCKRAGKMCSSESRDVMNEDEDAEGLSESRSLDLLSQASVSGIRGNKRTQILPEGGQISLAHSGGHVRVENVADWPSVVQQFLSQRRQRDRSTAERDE
# Mucolipin-3 = Mucolipin-3 (Homo sapiens, UniProt Q8TDD5); test: Fluorescence counterscreen assay for […] agonists: dose response cell-based high-throughput screening assay to identify agonists of the transient receptor potential channel ML3 (TRPML3). [Related pubchem assays: 1424, 1448 ]; format: functional
# Sequence of Mucolipin-3 (Q8TDD5 whole entry): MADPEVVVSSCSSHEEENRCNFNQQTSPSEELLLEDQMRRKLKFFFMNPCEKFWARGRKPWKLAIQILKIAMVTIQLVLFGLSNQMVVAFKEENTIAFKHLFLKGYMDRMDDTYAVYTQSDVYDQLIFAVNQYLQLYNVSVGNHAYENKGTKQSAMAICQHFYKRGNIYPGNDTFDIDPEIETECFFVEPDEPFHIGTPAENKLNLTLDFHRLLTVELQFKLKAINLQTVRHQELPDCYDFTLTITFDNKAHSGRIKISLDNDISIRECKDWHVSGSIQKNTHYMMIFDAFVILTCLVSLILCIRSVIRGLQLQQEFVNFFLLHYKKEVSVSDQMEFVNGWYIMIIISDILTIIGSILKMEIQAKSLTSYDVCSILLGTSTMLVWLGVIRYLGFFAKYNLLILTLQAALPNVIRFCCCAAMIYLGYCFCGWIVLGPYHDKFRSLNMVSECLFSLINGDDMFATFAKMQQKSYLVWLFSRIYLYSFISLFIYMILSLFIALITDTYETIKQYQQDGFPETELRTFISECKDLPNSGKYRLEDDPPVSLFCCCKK
# BJ [3] = test: cytotoxicity toward BJ-TERT fibroblasts, dose response, cell-based, RAS-independent, luminescence (AID 1933); format: functional; settings: Homo sapiens
# BJ [4] = test: cells; format: functional, cell-based; settings: Homo sapiens
# [5] = target: T3, Calpain-2 catalytic subunit (Sus scrofa, UniProt P43367); test: pig calpain II inhibitor potency, dose response, biochemical, fluorogenic peptide substrate (AID 1420); format: functional
# T3 sequence (P43367 whole entry): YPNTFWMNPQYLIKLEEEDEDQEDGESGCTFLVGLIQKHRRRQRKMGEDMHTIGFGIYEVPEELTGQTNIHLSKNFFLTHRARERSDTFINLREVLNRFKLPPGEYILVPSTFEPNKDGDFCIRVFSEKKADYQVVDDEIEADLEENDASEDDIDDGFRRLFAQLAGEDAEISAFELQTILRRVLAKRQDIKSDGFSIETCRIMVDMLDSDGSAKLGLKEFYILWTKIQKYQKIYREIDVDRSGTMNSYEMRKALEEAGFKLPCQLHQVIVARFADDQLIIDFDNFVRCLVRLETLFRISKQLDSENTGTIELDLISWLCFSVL
# BJ [6] = test: cytotoxicity toward BJ-TERT-LT-ST fibroblasts, dose response, cell-based, RAS-independent, luminescence (AID 1935); format: functional; settings: Homo sapiens;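 further: BJ fibroblasts immortalized with TERT plus LT and ST oncogenes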
# [7] = cytotoxicity toward DRD oncogenic fibroblasts, dose response, cell-based, non-viral oncogenic, luminescence (AID 1934); format: functional; settings: Homo sapiens
# [8] = Intein inhibitors as potential Tuberculosis drugs, a cytotoxicity screen. [Related pubchem assays (depositor defined):AID2221, AID2223, AID434968, AID435010, AID449749, AID449750, AID489010]; format: functional
# [9] = target: T4, Replicative DNA helicase DnaB (Mycobacterium tuberculosis, UniProt P9WMR3); test: DnaB intein splicing inhibitors, dose response, biochemical, cell-free fluorescence (AID 449749); format: functional
# T4 sequence (P9WMR3 whole entry): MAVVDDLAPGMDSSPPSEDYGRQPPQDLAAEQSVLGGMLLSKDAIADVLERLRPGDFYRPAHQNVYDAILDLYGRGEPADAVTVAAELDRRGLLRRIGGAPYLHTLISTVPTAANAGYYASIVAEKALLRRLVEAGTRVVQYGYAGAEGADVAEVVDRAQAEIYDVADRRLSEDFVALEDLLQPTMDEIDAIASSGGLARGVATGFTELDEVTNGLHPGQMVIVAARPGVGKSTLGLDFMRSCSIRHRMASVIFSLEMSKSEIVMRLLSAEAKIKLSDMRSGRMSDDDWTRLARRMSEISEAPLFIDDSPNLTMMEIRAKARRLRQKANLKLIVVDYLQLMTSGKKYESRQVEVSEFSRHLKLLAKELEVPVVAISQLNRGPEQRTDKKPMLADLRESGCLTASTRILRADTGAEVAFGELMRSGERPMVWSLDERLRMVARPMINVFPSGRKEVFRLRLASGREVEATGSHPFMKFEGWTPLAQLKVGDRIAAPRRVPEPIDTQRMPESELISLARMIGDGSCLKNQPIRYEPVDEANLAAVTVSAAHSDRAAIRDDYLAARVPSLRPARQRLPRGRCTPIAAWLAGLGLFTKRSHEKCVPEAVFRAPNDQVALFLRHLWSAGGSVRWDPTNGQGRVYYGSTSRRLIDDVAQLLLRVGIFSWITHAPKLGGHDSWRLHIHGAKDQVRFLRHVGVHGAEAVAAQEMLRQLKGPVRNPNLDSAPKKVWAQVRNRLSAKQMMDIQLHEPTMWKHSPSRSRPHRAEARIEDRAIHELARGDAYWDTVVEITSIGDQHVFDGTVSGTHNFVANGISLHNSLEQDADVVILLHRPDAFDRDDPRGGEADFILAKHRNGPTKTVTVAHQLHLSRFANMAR
# BJ [10] = test: cytotoxicity toward Ras-transformed BJeLR fibroblasts, dose response, cell-based, alamar blue fluorescence, cherrypicked samples (AID 2631); format: functional; settings: Homo sapiens;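 further: confirmatory dose-response assay in RAS-dependent BJ fibroblasts engineered with TERT, LT and ST, with cytotoxicity read by fluorescence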
# Protein RecA = target: T5, Protein RecA (Mycobacterium tuberculosis, UniProt P9WHJ3); test: Fluorescence Cell-Free Homogeneous Dose Retest to Identify Inhibitors of RecA-Intein Splicing Activity. [Related pubchem assays (depositor defined):AID2097, AID2223, AID489010, AID492950]; format: functional
# T5 sequence (P9WHJ3 whole entry): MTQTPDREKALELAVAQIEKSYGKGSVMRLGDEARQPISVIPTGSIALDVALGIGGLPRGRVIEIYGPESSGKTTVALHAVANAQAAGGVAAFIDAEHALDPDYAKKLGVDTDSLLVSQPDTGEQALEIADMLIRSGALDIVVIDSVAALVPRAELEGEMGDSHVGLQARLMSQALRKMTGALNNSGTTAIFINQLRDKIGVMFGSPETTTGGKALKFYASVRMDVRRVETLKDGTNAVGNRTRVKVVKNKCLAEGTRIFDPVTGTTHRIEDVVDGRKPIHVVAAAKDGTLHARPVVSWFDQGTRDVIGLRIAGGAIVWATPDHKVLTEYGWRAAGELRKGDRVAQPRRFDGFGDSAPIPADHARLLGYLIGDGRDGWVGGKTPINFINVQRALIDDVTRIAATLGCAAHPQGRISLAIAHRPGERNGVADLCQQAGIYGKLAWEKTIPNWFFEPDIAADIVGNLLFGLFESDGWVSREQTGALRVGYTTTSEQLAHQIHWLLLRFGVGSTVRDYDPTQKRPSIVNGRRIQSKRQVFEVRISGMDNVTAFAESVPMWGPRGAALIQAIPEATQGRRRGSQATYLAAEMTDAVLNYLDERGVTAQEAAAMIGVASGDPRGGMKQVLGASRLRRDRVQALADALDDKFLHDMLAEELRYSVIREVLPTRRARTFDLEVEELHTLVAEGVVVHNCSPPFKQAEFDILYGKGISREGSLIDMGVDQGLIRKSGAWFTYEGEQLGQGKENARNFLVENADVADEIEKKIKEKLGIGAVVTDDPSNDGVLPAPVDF
# Coagulation factor XII = target: T6, Coagulation factor XII (Homo sapiens, UniProt P00748); test: Factor XIIa Dose Response Confirmation from Single Well HTS. [Related pubchem assays (depositor defined):AID701]; format: functional
# T6 sequence (P00748 whole entry): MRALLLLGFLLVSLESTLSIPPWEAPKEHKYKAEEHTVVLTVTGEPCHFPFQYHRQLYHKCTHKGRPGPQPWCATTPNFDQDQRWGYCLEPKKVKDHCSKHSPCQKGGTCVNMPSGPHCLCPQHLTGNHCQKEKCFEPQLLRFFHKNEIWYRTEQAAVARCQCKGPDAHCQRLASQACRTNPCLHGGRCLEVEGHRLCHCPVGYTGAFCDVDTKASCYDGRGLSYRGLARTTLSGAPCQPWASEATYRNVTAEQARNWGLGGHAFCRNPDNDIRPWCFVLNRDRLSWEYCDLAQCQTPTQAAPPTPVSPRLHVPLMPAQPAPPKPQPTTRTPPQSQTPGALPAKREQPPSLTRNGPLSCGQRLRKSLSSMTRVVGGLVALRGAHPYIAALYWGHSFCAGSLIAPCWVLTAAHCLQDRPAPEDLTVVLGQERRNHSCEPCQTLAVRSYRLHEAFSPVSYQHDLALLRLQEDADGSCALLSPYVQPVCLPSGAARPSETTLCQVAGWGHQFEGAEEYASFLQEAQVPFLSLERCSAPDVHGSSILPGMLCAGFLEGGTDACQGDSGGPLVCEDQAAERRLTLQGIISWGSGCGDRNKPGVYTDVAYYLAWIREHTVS
# [11] = target: Peroxisome proliferator-activated receptor gamma (Homo sapiens, UniProt P37231); test: PPARg partial agonists, dose response, cell-based, luminescence, assay provider (AID 504447); format: functional
# Sequence of Peroxisome proliferator-activated receptor gamma (P37231 whole entry): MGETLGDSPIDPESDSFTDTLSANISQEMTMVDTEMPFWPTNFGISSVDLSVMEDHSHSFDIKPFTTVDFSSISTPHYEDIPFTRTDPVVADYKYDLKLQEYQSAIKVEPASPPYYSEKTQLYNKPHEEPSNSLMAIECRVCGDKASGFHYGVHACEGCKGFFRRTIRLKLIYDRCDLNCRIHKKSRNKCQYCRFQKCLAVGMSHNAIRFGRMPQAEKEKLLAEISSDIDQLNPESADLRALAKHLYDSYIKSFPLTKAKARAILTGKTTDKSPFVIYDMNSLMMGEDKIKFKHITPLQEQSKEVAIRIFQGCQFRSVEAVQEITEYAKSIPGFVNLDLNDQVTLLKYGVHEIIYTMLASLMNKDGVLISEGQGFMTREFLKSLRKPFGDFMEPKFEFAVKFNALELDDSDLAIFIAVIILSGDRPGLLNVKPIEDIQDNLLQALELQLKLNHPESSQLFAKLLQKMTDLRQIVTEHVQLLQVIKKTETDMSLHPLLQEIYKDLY
# 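Wherever CC50 is given: cells exposed to compound for 72 hours before luminescence readout.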
smiles,measurement,setting,value
CN1C(=O)C(=Cc2sc(=O)n(-c3ccccc3)c2N2CCCCC2)C(=O)N(C)C1=O,EC50,[1],4.56 µM (inconclusive)
same,EC50,[2],19.9 µM (inconclusive)
same,EC50,Ion channel NompC,> 3.32 µM (inactive)
same,EC50,Mucolipin-3,10.7 µM (not active)
Cc1ccc(N(C(=O)CCl)C(C(=O)NC2CCCCC2)c2cccnc2)cc1C (stereo not given),EC50,BJ [3],0.171 µM (inconclusive)
same,EC50,BJ [4],1.25 µM (active)
same,IC50,[5],34.7 µM (not active)
same,EC50,BJ [6],3.95 µM (active)
same,EC50,[7],0.413 µM (active)
same,CC50,[8],0.1 µM (active)
same,AC50,[9],2.3 µM (active)
same,EC50,BJ [10],0.147 µM (active)
same,EC50,Protein RecA,0.339 µM (active)
Cc1ccccc1CNCc1cccnc1,IC50,Coagulation factor XII,> 50 µM (inactive)
COc1ccc2c(c1)c(=O)c(C(=O)c1ccc(C)cc1)cn2CC(=O)Nc1ccc(F)cc1,EC50,[11],14 µM (active)
